In patent US9017963B2, “Method for detecting microorganisms” (Woundchek Laboratories (US), Inc., priority 2002, dated 2015):
*: point of attachment. Dabsyl = label, CN(C)c1ccc(/N=N/c2ccc(S(=O)(=O)*)cc2)cc1; EDANS = O=S(=O)(O)c1cccc2c(NCCN*)cccc12

Tests used:
[1] = test system: S. pyogenes; experiment: Indolyl ester glass microfiber filter sensor, S. pyogenes; type: biochemical, Streptococcus pyogenes; details: substrates bound to glass microfiber filter; FIG. 17B
[2] = test system: S. epidermidis; experiment: Indolyl ester glass microfiber filter sensor, S. epidermidis; type: biochemical, Staphylococcus epidermidis; details: substrates bound to glass microfiber filter; FIG. 17B
From the text: Hydrophobic interactions make use of the non-ionic packing that occurs in a polar solvent such as water and such interactions can be used in the production of biosensors for detection of pathogens. The substrates 5-bromo-4-chloro-3indolyl butyrate and 5-bromo-4-chloro-3indolyl caprylate can be spotted onto a glass microfiber filter to make a sensor. Upon spotting the filter with a small amount of Staphylococcus (aureus or epidermidis) culture medium the color of the filter will turn blue in approximately 15 minutes.

[3] = test system: lipase from S. aureus; experiment: Lipase assay, S. aureus culture supernatant; type: biochemical, Staphylococcus aureus; details: 20 mM Tris (pH 8.3) with 1 mM ZnSO4, 20% methanol, 20% DMSO, or 10 mM Triton X-100 vs control
Description: (§1) A culture of each of the following bacterial species was grown to saturation in Brain Heart Infusion (BHI) broth at 37° C. with vigorous shaking (˜200 rpm), using methods that are standard in the art: Staphylococcus aureus; Staphylococcus epidermidis; Serratia marcescens; Streptococcus salivarius; Escherichia coli; Pseudomonas aeruginosa; and Enterococcus faecalis. After overnight growth (to saturation), a 1 mL sample of each culture was obtained, and the cells were removed from the culture supernatant by centrifugation at 12,000×g for 5 minutes. The remaining culture supernatants were stored on ice until required (less than one hour). The bacteria were assayed for the presence or absence of specific enzymes as described below. Alternatively, the bacterial cells are not separated from the culture supernatant, but rather, the assay is carried out on a sample containing the cells still in suspension in their culture broth.
To test for the presence or absence of lipases secreted by bacteria, the lipase substrate p-nitrophenyl caprate, obtained from Sigma (Catalog No.: N-0252). This lipase substrate consists of capric acid, a ten-carbon lipid molecule, esterified with the dye para nitrophenol (detectable label) as described above. The substrate was dissolved in isopropyl alcohol at a concentration of 8 mM (2.35 mg/mL). A reaction buffer containing 20 mM Tris (pH 8.5) was also prepared.
To perform the lipase assay, 80 μL of reaction buffer, 10 μL of culture supernatant from each bacteria species described in Example 2, and 10 μL of assay substrate were added to a well of a 96-well microplate. Each bacterial species was assayed individually, and the assays were performed in triplicate. The 96-well plate was incubated at 37° C. for 60 minutes. At 5 minute intervals during the incubation period, absorbance at 415 nm, indicating modification of the enzyme by a lipase secreted by the cells, was automatically measured using a BioRad Benchmark Microplate reader.
However, it is known that bacterial lipases do show strong substrate specificity with regard to the chain length of the fatty acid they hydrolyze (Van Kampen et al., BBA, 1544: 229, 2001) and to the location in a lipid layer. The degree that the environment of the substrate affects the efficiency of hydrolysis depends on the particular enzyme. To test this for the lipase from S. aureus, the above-described lipase assay was performed in the presence of several detergent and solvent additives. The reaction buffer consisted of 20 mM Tris (pH 8.3) with 1 mM ZnSO4 added, plus either nothing additional (control), 20% methanol, 20% DMSO, or 10 mM Triton X-100.

[4] = test system: Serratia marcescens specific protease; experiment: Serratia protease FRET assay, S. marcescens culture; type: biochemical
From the text: A Serratia marcescens specific protease was identified based on a homology search using the sequence of a known sspB protease found in the Staphylococcus species. This protease has homology to the cysteine protease precursor (sspB) protein of Staphylococcus aureus. The corresponding Serratia protease has not been previously characterized. To test for the presence of the specific protease in a bacterial culture, a short target peptide was designed. This target peptide was derived from a polypeptide substrate previously shown to be cleaved by S. aureus sspB (Chan and Foster, J. Bacteriology 180:6232-6241, 1998). This peptide was capped by a fluorescent dye molecule on one end and by an associated chromophore molecule on the other end. If the absorption band of the chromophore has sufficient overlap with the absorbance band associated with the fluorescence of the dye molecule, the observed fluorescence will be quenched. This phenomenon is known as fluorescence resonance energy transfer (FRET) and can be used to determine the distance between the FRET donor and acceptor molecules. Upon cleavage of the peptide the fluorescent indicator is released from the proximity of the quencher and the fluorescence increase is measured. Thus, the presence or absence of a protease that targets the peptide in the sample can be determined by detecting fluorescence emitted by the cleaved peptide. […]

[5] = test system: beta-galactosidase (other bacterial supernatants of Example 2); experiment: Beta-galactosidase assay, other species; type: biochemical; details: 37° C.
Description: as §1
(§2) To determine the presence or absence of bacteria in a sample, mid-log phase bacterial supernatants were obtained as described in Example 2. A substrate solution containing the labeled synthetic substrate ortho-nitrophenyl-b-D-galactopyranoside (ONPG) dissolved in 50% DMSO to a concentration of 20 mM was prepared. […] The samples were incubated at 37° C. and absorbance at 420 nm was measured hourly.

[6] = test system: beta-galactosidase (Streptococcus salivarius); experiment: Beta-galactosidase assay, S. salivarius supernatant; type: biochemical; details: 37° C.
Description: as §1, §2

[7] = test system: other bacterial culture supernatants of Example 2; experiment: Autolysin assay, other culture supernatants; type: biochemical; details: other culture supernatants vs water control; 20° C., 7 hours
Description: as §1, with “Alternatively, the bacterial cells are not separated from the culture supernatant, but rather, the assay is carried out on a sample containing the cells still in suspension in their culture broth.” left out
(§3) To test for the presence of autolysins in bacterial cell culture supernatants, the synthetic autolysin substrate p-nitrophenyl-N-acetyl-b-D-glucosaminide (PNP-AGA), a substrate containing a dye that is detected at […] when the substrate is modified, was dissolved in 50% DMSO to a final concentration of 20 mM to form a substrate solution. Modification of this substrate can be detected by measuring the change in absorbance at 405 nm. […] The progress of modification of the labeled substrate was monitored by absorbance at 405 nm.

[8] = test system: autolysins (Enterococcus faecalis); experiment: Autolysin assay, E. faecalis supernatant; type: biochemical; details: 20° C., 7 hours
Description: as §1, with “Alternatively, the bacterial cells are not separated from the culture supernatant, but rather, the assay is carried out on a sample containing the cells still in suspension in their culture broth.” left out
as §3

[9] = test system: Serratia marcescens specific protease; experiment: Biosensor: target peptide bound to Cell Debris Remover, exposed to Serratia marcescens extract; type: biochemical
From the text: An example of a biosensor for the detection of a Serratia marcescens (S. marcescens) specific protease, and therefore, for the detection of Serratia marcescens now follows. The Serratia marcescens specific target peptide substrate was bound to a surface with a weak positive charge, such as fibrous cellulose lightly substituted with DEAE (Cell Debris Remover, Whatman, Inc.).

[10] = test system: Staphylococcus aureus, Listeria monocytogenes, Pseudomonas aeruginosa, Enterococcus faecalis, Streptococcus salivarius, Escherichia coli cultures; experiment: Serratia protease FRET assay, other bacterial pathogen samples; type: biochemical; details: other bacterial samples vs water control; same conditions
Description: The specificity of the protease for Serratia marcescens is was determined by detecting cleavage of a target polypeptide, using FRET, by the protease in a number of different bacterial pathogen samples. The bacterial pathogen samples used in this study were all taken from overnight cultures grown in brain heart […] (BHI) media at 37° C., as described herein. The bacterial pathogens chosen for this study were: Staphylococcus aureus, Listeria monocytogenes, Pseudomonas aeruginosa, Enterococcus faecalis, Streptococcus salivarius, Serratia marcescens, and Escherichia coli. The target peptide substrate used to test for the Serratia marcescens specific protease was as follows: Dabsyl-NEAIQEDQVQYE-Edans (SEQ ID NO: 2), and was prepared using standard methods known to one skilled in the art. A substrate solution containing 1 mg/mL to 5 mg/mL of target peptide substrate in 1:1 water/dimethylsulfoxide (DMSO) was prepared. The reaction buffer used was 20 mM Tris (pH 7.5) with 200 mM NaCl. […] The narrow band filters in the fluorimeter were centered at 305 nm for excitation and 485 nm for fluorescence emission readings. The samples were incubated at 37° C. and the fluorescence of each sample was measured at time points taken every 10 minutes. […]

## CCCC(=O)Oc1c[nH]c2ccc(Br)c(Cl)c12 [5-bromo-4-chloro-3indolyl butyrate]
[1]
  detection on filter sensor: did not detect S. pyogenes
[2]
  detection on filter sensor (dark spot): dark spot corresponding to S. epidermidis indicates detection

## CCCCCCCC(=O)Oc1c[nH]c2ccc(Br)c(Cl)c12 [5-bromo-4-chloro-3indolyl caprylate]
[1]
  detection on filter sensor: did not detect S. pyogenes
[2]
  detection on filter sensor (dark spot): dark spot corresponding to S. epidermidis indicates detection

## C[S+](C)[O-] [DMSO]
[3]
  effect of additive on hydrolysis rate of p-nitrophenyl caprate: hydrolysis rate was found to increase

## O=C(O)CN(CCN(CC(=O)O)CC(=O)O)CC(=O)O [EDTA, ethylenediaminetetraacetic acid]
[4]; One mM EDTA added to 20 mM Tris (pH 7.5) with 200 mM NaCl, Serratia culture
  effect of EDTA on protease activity (relative fluorescence of the target peptide): No reduction in activity

## O=[N+]([O-])c1ccccc1O[C@@H]1O[C@H](CO)[C@H](O)[C@H](O)[C@H]1O [ONPG, ortho-nitrophenyl-b-D-galactopyranoside]
[5]
  reaction with substrate (absorbance at 420 nm): other species did not
[6]
  reaction with substrate (absorbance at 420 nm): reacted with the substrate

## CC(=O)N[C@H]1[C@H](Oc2ccc([N+](=O)[O-])cc2)O[C@H](CO)[C@@H](O)[C@@H]1O [PNP-AGA, p-nitrophenyl-N-acetyl-b-D-glucosaminide]
[7]
  modification of substrate (change in absorbance at 405 nm): None of the other culture supernatants were distinguishable from the water control
[8]
  modification of substrate (change in absorbance at 405 nm): reacted with the substrate, giving rise to a color change

## CO [methanol]
[3]
  effect of additive on hydrolysis rate of p-nitrophenyl caprate: hydrolysis rate was found to increase

## Dabsyl-NEAIQEDQVQYE-Edans (Dabsyl-NEAIQEDQVQYE-{EDANS}; SMILES CC[C@H](C)[C@H](NC(=O)[C@H](C)NC(=O)[C@H](CCC(=O)O)NC(=O)[C@H](CC(N)=O)NS(=O)(=O)c1ccc(/N=N/c2ccc(N(C)C)cc2)cc1)C(=O)N[C@@H](CCC(N)=O)C(=O)N[C@@H](CCC(=O)O)C(=O)N[C@@H](CC(=O)O)C(=O)N[C@@H](CCC(N)=O)C(=O)N[C@H](C(=O)N[C@@H](CCC(N)=O)C(=O)N[C@@H](Cc1ccc(O)cc1)C(=O)N[C@@H](CCC(=O)O)C(=O)NCCNc1cccc2c(S(=O)(=O)O)cccc12)C(C)C) [target peptide substrate used to test for the Serratia marcescens specific protease]
[4]; S. marcescens overnight culture in BHI, 20 mM Tris (pH 7.5) with 200 mM NaCl, 37° C., emission 485 nm
  cleavage of target peptide substrate (relative fluorescence intensity over time): reacted with the substrate, giving rise to an increase in fluorescence intensity
[9]
  fluorescence of biosensor: fluorescence was readily detected
[10]
  cleavage of target peptide substrate (relative fluorescence intensity over time): None of the other bacterial samples, including the Staphylococcus aureus sample, were distinguishable from the control

## Triton X-100
[3]
  effect of additive on hydrolysis rate of p-nitrophenyl caprate: hydrolysis rate was found to increase
